From patent publication US8207163B2, “Compositions, synthesis, and methods of using piperazine based antipsychotic agents” (Reviva Pharmaceuticals, Inc., priority 2008, dated 2012) come the findings set out here.

Test [1] concerns the target T1, serotonin 5-HT1A receptor (human recombinant expressed in HEK-293 cells) (Homo sapiens, UniProt P08908).
T1 construct: expressed in transfected cells; host or cells: HEK-293 cells (from the result head)
T1 sequence (P08908 1-422): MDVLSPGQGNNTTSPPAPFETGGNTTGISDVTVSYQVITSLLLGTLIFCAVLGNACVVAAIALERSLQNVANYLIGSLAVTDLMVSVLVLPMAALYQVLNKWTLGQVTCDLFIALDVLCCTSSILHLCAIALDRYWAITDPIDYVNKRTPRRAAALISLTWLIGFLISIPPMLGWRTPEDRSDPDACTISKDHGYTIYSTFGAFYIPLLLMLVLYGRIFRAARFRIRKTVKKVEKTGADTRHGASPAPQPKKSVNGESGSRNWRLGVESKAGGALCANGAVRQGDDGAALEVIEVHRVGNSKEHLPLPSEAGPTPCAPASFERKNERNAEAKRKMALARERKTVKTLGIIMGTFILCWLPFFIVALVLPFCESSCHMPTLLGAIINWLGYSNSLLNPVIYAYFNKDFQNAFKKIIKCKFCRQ
Nature of the test: Serotonin, 5HT1A (human recombinant) radioligand binding assay, [3H]-8-OH-DPAT. The conditions noted are these: human recombinant in HEK-293 cells; for IC50: six concentrations 0.5-1000 nM. As to the method: (§1) The reactions were carried out in 50 mM TRIS-Hal (pH 7.4) containing 10 mM MgSO4, 0.5 mM EDTA and 0.1% Ascorbic acid at room temperature for 1 hour. The reaction was terminated by rapid vacuum filtration onto glass fiber filters. Radioactivity trapped onto the filters was determined and compared to control values in order to ascertain any interactions of test compounds with the cloned serotonin—5HT1A binding site (Literature Reference: Hoyer, D. et al. Eur. Journal Pharmacol. 1985, 118, 13-23; Schoeffier, P. and Hoyer, D. Naunyn-Schmiedeberg's Arch. Pharmac. 1989, 340, 135-138) • Serotonin, 5HT2A (human) binding assay: • Materials and Methods: • Receptor Source: Human Cortex • Radioligand: [^3H]-Ketanserin (60-90 Ci/mmol) • Control Compound: Ketanserin • Incubation Conditions:
(§2) The radioligand binding assays for dopamine-D2S, serotonin-5HT1A and serotonin-5HT2A were carried out at six different concentrations and the test concentrations were 0.5 nM, 1 nM, 10 nm, 100 nM, 300 nM and 1000 nM.

The target of test [2] is T2, serotonin 5-HT2A receptor (Human Cortex) (Homo sapiens, UniProt P28223).
T2 construct: Receptor Source: Human Cortex; from tissue; host or cells: human cortex
T2 sequence (P28223 whole entry): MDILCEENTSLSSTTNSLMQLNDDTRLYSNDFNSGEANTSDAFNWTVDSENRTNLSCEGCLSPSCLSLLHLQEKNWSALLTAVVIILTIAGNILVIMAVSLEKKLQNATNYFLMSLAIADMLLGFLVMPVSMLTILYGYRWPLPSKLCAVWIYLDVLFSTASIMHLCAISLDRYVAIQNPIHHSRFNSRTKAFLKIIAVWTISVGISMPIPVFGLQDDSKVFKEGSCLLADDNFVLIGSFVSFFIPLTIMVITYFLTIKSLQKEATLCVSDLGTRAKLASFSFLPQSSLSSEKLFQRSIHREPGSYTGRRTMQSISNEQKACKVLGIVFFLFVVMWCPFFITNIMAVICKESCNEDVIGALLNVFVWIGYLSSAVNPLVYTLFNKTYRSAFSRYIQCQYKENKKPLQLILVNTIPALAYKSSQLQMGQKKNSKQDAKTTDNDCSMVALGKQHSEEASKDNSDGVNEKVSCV
The experiment in a line: Serotonin, 5HT2A (human) radioligand binding assay, [3H]-Ketanserin. The conditions noted are these: for IC50: six concentrations 0.5-1000 nM. As to the method: as §1
The reactions were carried out in 50 mM TRIS-Hal (pH 7.6) at room temperature for 90 minutes. The reaction was terminated by rapid vacuum filtration onto glass fiber filters. Radioactivity trapped onto the filters was determined and compared to control values in order to ascertain any interactions of test compounds with the serotonin—5HT2A binding site (Literature Reference: Leysen, J. E. et al. Mol. Pharmacol. 1982, 21, 301-314; Martin, G. R. and Humphrey, P. P. A. Neuropharmacol. 1994, 33(3/4), 261-273.)
as §2

Test [3] deals with T3, dopamine D2S receptor (human recombinant expressed in CHO cells) (Homo sapiens, UniProt P14416).
T3 construct: expressed in transfected cells; host or cells: CHO cells
T3 sequence (P14416 1-414 isoform P14416-2): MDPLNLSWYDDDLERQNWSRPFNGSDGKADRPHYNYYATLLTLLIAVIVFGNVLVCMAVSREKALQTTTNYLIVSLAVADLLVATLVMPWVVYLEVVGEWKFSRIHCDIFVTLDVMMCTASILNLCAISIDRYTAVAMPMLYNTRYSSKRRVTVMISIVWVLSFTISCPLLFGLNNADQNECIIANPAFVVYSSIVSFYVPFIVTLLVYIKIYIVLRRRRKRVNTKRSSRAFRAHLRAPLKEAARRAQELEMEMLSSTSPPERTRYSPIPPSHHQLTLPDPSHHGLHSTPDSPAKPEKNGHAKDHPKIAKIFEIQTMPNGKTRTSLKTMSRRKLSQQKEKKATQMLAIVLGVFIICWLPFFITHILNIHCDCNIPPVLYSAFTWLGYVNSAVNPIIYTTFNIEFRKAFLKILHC
The experiment in a line: Dopamine, D2S (human recombinant) radioligand binding assay, [3H]Spiperone. The conditions noted are these: for IC50: six concentrations 0.5-1000 nM. As to the method: The piperazine derivatives comprising Formulae (I)-(X) described in this invention were tested in the in vitro pharmacological assays to evaluate their activities for dopamine, D2S, serotonin, 5-HT1A and serotonin, 5-HT2A receptors. The in vitro assay protocols and literature references are described herein. • Dopamine, D2S (human recombinant) binding assay: • Materials and Methods: [table] The reactions were carried out in 50 mM TRIS-Hal (pH 7.4) containing 120 mM NaCl, 5 mM KCl, 5 mM MgCl2, 1 mM EDTA for 60 minutes at 25 C. The reaction was terminated by rapid vacuum filtration onto glass fiber filters. Radioactivity trapped onto the filters was determined and compared to control values in order to ascertain any interactions of test compounds with the cloned dopamine—D2 short binding site (Literature Reference: Jarvis, K. R. et al. Journal of Receptor Research 1993, 13(1-4), 573-590; Gundlach, A. L. et al. Life Sciences 1984, 35, 1981-1988.) • Serotonin, 5HT1A (human recombinant) binding assay: • Materials and Methods: The radioligand binding assays for dopamine-D2S, serotonin-5HT1A and serotonin-5HT2A were carried out at six different concentrations and the test concentrations were 0.5 nM, 1 nM, 10 nm, 100 nM, 300 nM and 1000 nM.

Where a name gives a salt, the structure may show the parent alone.

Regarding `CCOC(=O)C(C)(C)CCOc1ccccc1N1CCN(CCCCOc2ccc3c(c2)NC(=O)CO3)CC1` [Compound 18b, Ethyl 2,2-dimethyl-4-(2-(4-(4-(3-oxo-3,4-dihydro-2H-benzo[b][1,4]oxazin-6-yloxy)butyl)piperazin-1-yl)phenoxy)butanoate hydrochloride], the Ki in test [1] was determined as 3.3 nM; in test [2], 340 nM; in test [3] it was 50.2 nM. In addition, the IC50 is 5.44 nM in test [1], 622 nM in test [2] and 147 nM in test [3].
Regarding `O=C(CCCN1CCN(c2cccc(Cl)c2Cl)CC1)Nc1ccc2c(c1)NC(=O)CO2` [Compound 5b, 4-(4-(2,3-Dichlorophenyl)piperazin-1-yl)-N-(3-oxo-3,4-dihydro-2H-benzo[b][1,4]oxazin-6-yl)butanamide hydrochloride], the figures for the Ki in test [1], in test [2] and in test [3] were 11.4 nM, 57.4 nM and 2.89 nM, respectively. The results for the IC50 in test [1], in test [2] and in test [3] were 18.5 nM, 110 nM and 7.89 nM, respectively.
Turning to `CCOC(=O)CN1C(=O)COc2ccc(OCCCCN3CCN(c4cccc(Cl)c4Cl)CC3)cc21` [Compound 28c, Ethyl 2-(6-(4-(4-(2,3-dichlorophenyl)piperazin-1-yl)butoxy)-3-oxo-2H-benzo[b][1,4]oxazin-4(3H)-yl)acetate hydrochloride], the Ki worked out at 2.96 nM in test [1], 106 nM in test [2] and 15.5 nM in test [3]. The IC50 in test [1] was 4.45 nM; in test [2], 237 nM; in test [3], 49.4 nM.
Turning to `CCOC(=O)C(C)(C)Oc1ccccc1N1CCN(CCCCOc2ccc3c(c2)NC(=O)CO3)CC1` [Compound 18c, Ethyl 2-methyl-2-(2-(4-(4-(3-oxo-3,4-dihydro-2H-benzo[b][1,4]oxazin-6-yloxy)butyl)piperazin-1-yl)phenoxy)propanoate hydrochloride], the Ki is 2.67 nM in test [1], 185 nM in test [2] and 2.09 nM in test [3]. Moreover, the results for the IC50 in test [1], in test [2] and in test [3] were 4.41 nM, 376 nM and 5.93 nM, respectively.
Consider `CCOC(=O)CCCOc1ccccc1N1CCN(CCCCOc2ccc3c(c2)NC(=O)CO3)CC1` [Compound 18a, Ethyl 4-(2-(4-(4-(3-oxo-3,4-dihydro-2H-benzo[b][1,4]oxazin-6-yloxy)butyl)piperazin-1-yl)phenoxy)butanoate hydrochloride], for which the Ki worked out at 10.2 nM in test [1], 282 nM in test [2] and 6.77 nM in test [3]. The IC50 was 16.7 nM in test [1], 572 nM in test [2] and 19.2 nM in test [3].
